Data reported in paper PMC9120017, “Inhibition mechanism of the chloride channel TMEM16A by the pore blocker 1PBC” (Nature Communications, 2022).
Like-named read-outs stand apart in the source and are kept apart here.

Biological target: T1, mouse TMEM16A mutant V511A (Mus musculus, UniProt Q8BHY3, V511A)
T1 construct: expressed in transfected cells; host or cells: HEK293T
T1 sequence (Q8BHY3 1-960 V511A): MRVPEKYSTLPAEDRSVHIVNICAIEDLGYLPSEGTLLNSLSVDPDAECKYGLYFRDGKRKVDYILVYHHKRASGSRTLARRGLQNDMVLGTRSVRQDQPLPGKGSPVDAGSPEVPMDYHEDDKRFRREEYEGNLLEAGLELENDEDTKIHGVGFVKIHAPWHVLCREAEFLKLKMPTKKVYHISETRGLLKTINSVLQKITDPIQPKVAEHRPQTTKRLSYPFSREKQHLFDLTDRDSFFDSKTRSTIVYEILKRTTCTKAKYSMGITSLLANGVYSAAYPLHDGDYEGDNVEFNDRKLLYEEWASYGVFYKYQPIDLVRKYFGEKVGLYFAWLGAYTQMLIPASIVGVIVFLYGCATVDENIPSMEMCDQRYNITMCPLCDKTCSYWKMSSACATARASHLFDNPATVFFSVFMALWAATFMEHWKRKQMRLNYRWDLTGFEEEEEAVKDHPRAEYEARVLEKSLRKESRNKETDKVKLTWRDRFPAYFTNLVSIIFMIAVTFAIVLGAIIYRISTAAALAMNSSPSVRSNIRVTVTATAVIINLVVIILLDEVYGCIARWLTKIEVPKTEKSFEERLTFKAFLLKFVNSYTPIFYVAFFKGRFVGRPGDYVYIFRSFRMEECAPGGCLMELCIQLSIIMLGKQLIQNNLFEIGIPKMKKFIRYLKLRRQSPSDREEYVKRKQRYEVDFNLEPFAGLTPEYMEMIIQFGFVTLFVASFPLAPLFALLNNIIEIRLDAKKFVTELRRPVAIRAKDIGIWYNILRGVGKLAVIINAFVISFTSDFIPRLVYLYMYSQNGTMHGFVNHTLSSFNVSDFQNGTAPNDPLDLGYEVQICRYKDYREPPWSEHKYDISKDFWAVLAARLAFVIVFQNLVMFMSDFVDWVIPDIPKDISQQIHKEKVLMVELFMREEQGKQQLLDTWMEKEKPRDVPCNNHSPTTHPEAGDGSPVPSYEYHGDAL
Assay: Inside-out patch recording of 1PBC block, mutant V511A
Format: cell-based
Settings: for remaining activity at 3 µM: 1PBC 3; for remaining activity at 3 µM / remaining activity at 10 µM / remaining activity at 30 µM / remaining activity at 100 µM: read-out: fraction of unblocked current; for remaining activity at 10 µM: 1PBC 10; for remaining activity at 30 µM: 1PBC 30; for remaining activity at 100 µM: 1PBC 100
Experimental: HEK293T cells (ATCC CRL-1573) were maintained in Dulbecco’s modified Eagle’s medium (DMEM; Sigma-Aldrich) supplemented with 10 U ml^−1 penicillin, 0.1 mg ml^−1 streptomycin (Sigma-Aldrich), 2 mM L-glutamine (Sigma-Aldrich), and 10% FBS (Sigma-Aldrich) in a humidified atmosphere containing 5% CO2 at 37 °C. HEK293S GnTI^− cells (ATCC CRL-3022) were maintained in HyClone HyCell TransFx-H medium (GE Healthcare) supplemented with 10 U ml^−1 penicillin, 0.1 mg ml^−1 streptomycin, 4 mM L-glutamine, 0.15% poloxamer 188 (Sigma-Aldrich), and 1% FBS in an atmosphere containing 5% CO2 at 185 rpm at 37 °C. The ac splice variant of mouse TMEM16A (UniProt ID: Q8BHY3), mouse TMEM16B (UniProt ID: Q8CFW1), or mouse TMEM16F (UniProt ID: Q6P9J9) bearing a 3C cleavage site, a Venus YFP, a Myc tag, and a Streptavidin-binding peptide (SBP) downstream of the open reading frame in a modified pcDNA3.1 vector (Invitrogen) were used as described previously[21],[31]. Mutations were introduced using a modified QuikChange method[58] and were verified by sequencing.
HEK293T cells were transfected with 3–4 μg DNA per 6 cm Petri dish using the calcium phosphate co-precipitation method and were used within 24–96 h after transfection. Recordings were performed on inside-out patches excised from HEK293T cells expressing the construct of interest. Patch pipettes were pulled from borosilicate glass capillaries (O.D. 1.5 mm, I.D. 0.86 mm, Sutter Instrument) and were fire-polished with a microforge (Narishige) before use. Pipette resistance was typically 3–8 MΩ when filled with the recording solutions detailed below. Seal resistance was typically 4 GΩ or higher. Voltage-clamp recordings were made using Axopatch 200B, Digidata 1550, and Clampex 10.7 (Molecular Devices). Analog signals were filtered with the in-built 4-pole Bessel filter at 10 kHz and were digitized at 20 kHz. Solution exchange was achieved using a gravity-fed system through a theta glass pipette mounted on an ultra-fast piezo-driven stepper (Siskiyou). […] All recordings were performed at 20 °C.
A symmetrical ionic condition was used throughout. Stock solution with Ca^2+-EGTA contained 150 mM NaCl, 5.99 mM Ca(OH)2, 5 mM EGTA, and 10 mM HEPES at pH 7.40. Stock solution with EGTA contained 150 mM NaCl, 5 mM EGTA, and 10 mM HEPES at pH 7.40. Free Ca^2+ concentrations were adjusted by mixing the stock solutions at the required ratios calculated using the WEBMAXC program (http://web.stanford.edu/~cpatton/webmaxcS.htm). Patch pipettes were filled with the stock solution with Ca^2+-EGTA, which has a free Ca^2+ concentration of 1 mM. 1PBC (ChemBridge) stock was reconstituted in anhydrous DMSO (Sigma-Aldrich) at 100 mM and stored at −20 °C. Working solutions with 1PBC were prepared by serial dilution. Unless otherwise stated, experiments were performed at a saturating Ca^2+ concentration as shown in Supplementary Table 1 and the primary data were corrected for current rundown as described previously[21],[25].
Concentration-response relations, obtained from the ratio of the I-V plots before and after the application of the blocker, were fitted to the Hill equation,1 I/Imax=1/1+IC50/[blocker]^h where I/Imax is the normalized current responses, IC50 defines the concentration at which inhibition is at its half-maximum, and h is the Hill coefficient.

IC50 (0 mV, 2 µM Ca2+): 20.8 µM
remaining activity at 3 µM (0 mV): 87.8%
remaining activity at 3 µM (20 mV): 84.4%
remaining activity at 3 µM (40 mV): 80.2%
remaining activity at 3 µM (60 mV): 77.1%
remaining activity at 3 µM (80 mV): 73.1%
remaining activity at 3 µM (100 mV): 70.9%
remaining activity at 3 µM (120 mV): 69.6%
remaining activity at 3 µM (140 mV): 70.4%
remaining activity at 3 µM (-20 mV): 91.2%
remaining activity at 3 µM (-40 mV): 93%
remaining activity at 3 µM (-60 mV): 94.7%
remaining activity at 3 µM (-80 mV): 95.6%
remaining activity at 3 µM (-100 mV): 95.2%
remaining activity at 3 µM (-120 mV): 95.6%
remaining activity at 3 µM (-140 mV): 94.5%
remaining activity at 10 µM (0 mV): 68%
remaining activity at 10 µM (20 mV): 62.6%
remaining activity at 10 µM (40 mV): 56.1%
remaining activity at 10 µM (60 mV): 50.6%
remaining activity at 10 µM (80 mV): 45.9%
remaining activity at 10 µM (100 mV): 43.5%
remaining activity at 10 µM (120 mV): 41.9%
remaining activity at 10 µM (140 mV): 42.2%
remaining activity at 10 µM (-20 mV): 73.3%
remaining activity at 10 µM (-40 mV): 78.6%
remaining activity at 10 µM (-60 mV): 82.2%
remaining activity at 10 µM (-80 mV): 84.9%
remaining activity at 10 µM (-100 mV): 86.6%
remaining activity at 10 µM (-120 mV): 87%
remaining activity at 10 µM (-140 mV): 87.7%
remaining activity at 30 µM (0 mV): 40.9%
remaining activity at 30 µM (20 mV): 35.2%
remaining activity at 30 µM (40 mV): 30.5%
remaining activity at 30 µM (60 mV): 26.5%
remaining activity at 30 µM (80 mV): 24%
remaining activity at 30 µM (100 mV): 22.5%
remaining activity at 30 µM (120 mV): 22.7%
remaining activity at 30 µM (140 mV): 23.4%
remaining activity at 30 µM (-20 mV): 46.5%
remaining activity at 30 µM (-40 mV): 52.4%
remaining activity at 30 µM (-60 mV): 58.4%
remaining activity at 30 µM (-80 mV): 63.9%
remaining activity at 30 µM (-100 mV): 68.3%
remaining activity at 30 µM (-120 mV): 71.3%
remaining activity at 30 µM (-140 mV): 72.9%
remaining activity at 100 µM (0 mV): 16.5%
remaining activity at 100 µM (20 mV): 13.8%
remaining activity at 100 µM (40 mV): 11.5%
remaining activity at 100 µM (60 mV): 10.1%
remaining activity at 100 µM (80 mV): 9.26%
remaining activity at 100 µM (100 mV): 9.4%
remaining activity at 100 µM (120 mV): 9.52%
remaining activity at 100 µM (140 mV): 9.88%
remaining activity at 100 µM (-20 mV): 19.3%
remaining activity at 100 µM (-40 mV): 23.1%
remaining activity at 100 µM (-60 mV): 28.5%
remaining activity at 100 µM (-80 mV): 33.3%
remaining activity at 100 µM (-100 mV): 37.9%
remaining activity at 100 µM (-120 mV): 41.7%
remaining activity at 100 µM (-140 mV): 44.8%
IC50 (20 mV, 2 µM Ca2+): 16.4 µM
IC50 (40 mV, 2 µM Ca2+): 12.8 µM
IC50 (60 mV, 2 µM Ca2+): 10.4 µM
log-fold IC50 (change of mutant vs WT) (80 mV): 0.5163
IC50 (80 mV, 2 µM Ca2+): 8.67 µM
IC50 (100 mV, 2 µM Ca2+): 7.86 µM
IC50 (120 mV, 2 µM Ca2+): 7.49 µM
IC50 (140 mV, 2 µM Ca2+): 7.71 µM
IC50 (-20 mV, 2 µM Ca2+): 26.3 µM
IC50 (-40 mV, 2 µM Ca2+): 33.3 µM
IC50 (-60 mV, 2 µM Ca2+): 42.3 µM
IC50 (-80 mV, 2 µM Ca2+): 52.4 µM
IC50 (-100 mV, 2 µM Ca2+): 62.9 µM
IC50 (-120 mV, 2 µM Ca2+): 72.1 µM
IC50 (-140 mV, 2 µM Ca2+): 79.5 µM
IC50 (V511A, V 0 mV): 20.8 µM
IC50 (V511A, V 20 mV): 16.4 µM
IC50 (V511A, V 40 mV): 12.8 µM
IC50 (V511A, V 60 mV): 10.4 µM
IC50 (V511A, V 80 mV): 8.67 µM
IC50 (V511A, V 100 mV): 7.86 µM
IC50 (V511A, V 120 mV): 7.49 µM
IC50 (V511A, V 140 mV): 7.71 µM
IC50 (V511A, V -20 mV): 26.3 µM
IC50 (V511A, V -40 mV): 33.3 µM
IC50 (V511A, V -60 mV): 42.3 µM
IC50 (V511A, V -80 mV): 52.4 µM
IC50 (V511A, V -100 mV): 62.9 µM
IC50 (V511A, V -120 mV): 72.1 µM
IC50 (V511A, V -140 mV): 79.5 µM
Compound: N#Cc1c(C(F)(F)F)cc(O)n2c1nc1ccccc12 [1PBC]
